Values quoted from earlier work as cited in patent US11013707B2, “Administration of oral methyldopa” (ImmunoMolecular Therapeutics, LLC., priority 2018, dated 2021).
Where two headings read alike, the source gives them in different places.

How the values were obtained:
[1] = man, average
[2] = in vivo

C[C@](N)(Cc1ccc(O)c(O)c1)C(=O)O [α-methyldopa, L-α-Methyl-3,4-dihydroxyphenylalanine]
fraction of the dose available to the systemic circulation as free α-methyldopa ([1]; administered as tablets): 27% | fraction of the dose available to the systemic circulation as free α-methyldopa ([1]; after an oral solution): 25% | half-life [2]: about 105 minutes

C[C@@](N)(Cc1ccc(O)c(O)c1)C(=O)O [D-α-methyldopa, D-α-Methyl-3,4-dihydroxyphenylalanine]
absorption compared with the L isomer (humans, Au et al. 1972): much less readily absorbed | pharmacologic activity (literature, patients with hypertension): no pharmacologic activity
